# Laboratory results taken from ChEMBL document CHEMBL1201862, “PubChem BioAssay data set” (2004).
# Calls of active or inactive are those of the source.
# Legend:
# [1] = target: T1, Histone-lysine N-methyltransferase NSD2 (Homo sapiens, UniProt O96028); assay type: biochemical
# T1 sequence (O96028 whole entry): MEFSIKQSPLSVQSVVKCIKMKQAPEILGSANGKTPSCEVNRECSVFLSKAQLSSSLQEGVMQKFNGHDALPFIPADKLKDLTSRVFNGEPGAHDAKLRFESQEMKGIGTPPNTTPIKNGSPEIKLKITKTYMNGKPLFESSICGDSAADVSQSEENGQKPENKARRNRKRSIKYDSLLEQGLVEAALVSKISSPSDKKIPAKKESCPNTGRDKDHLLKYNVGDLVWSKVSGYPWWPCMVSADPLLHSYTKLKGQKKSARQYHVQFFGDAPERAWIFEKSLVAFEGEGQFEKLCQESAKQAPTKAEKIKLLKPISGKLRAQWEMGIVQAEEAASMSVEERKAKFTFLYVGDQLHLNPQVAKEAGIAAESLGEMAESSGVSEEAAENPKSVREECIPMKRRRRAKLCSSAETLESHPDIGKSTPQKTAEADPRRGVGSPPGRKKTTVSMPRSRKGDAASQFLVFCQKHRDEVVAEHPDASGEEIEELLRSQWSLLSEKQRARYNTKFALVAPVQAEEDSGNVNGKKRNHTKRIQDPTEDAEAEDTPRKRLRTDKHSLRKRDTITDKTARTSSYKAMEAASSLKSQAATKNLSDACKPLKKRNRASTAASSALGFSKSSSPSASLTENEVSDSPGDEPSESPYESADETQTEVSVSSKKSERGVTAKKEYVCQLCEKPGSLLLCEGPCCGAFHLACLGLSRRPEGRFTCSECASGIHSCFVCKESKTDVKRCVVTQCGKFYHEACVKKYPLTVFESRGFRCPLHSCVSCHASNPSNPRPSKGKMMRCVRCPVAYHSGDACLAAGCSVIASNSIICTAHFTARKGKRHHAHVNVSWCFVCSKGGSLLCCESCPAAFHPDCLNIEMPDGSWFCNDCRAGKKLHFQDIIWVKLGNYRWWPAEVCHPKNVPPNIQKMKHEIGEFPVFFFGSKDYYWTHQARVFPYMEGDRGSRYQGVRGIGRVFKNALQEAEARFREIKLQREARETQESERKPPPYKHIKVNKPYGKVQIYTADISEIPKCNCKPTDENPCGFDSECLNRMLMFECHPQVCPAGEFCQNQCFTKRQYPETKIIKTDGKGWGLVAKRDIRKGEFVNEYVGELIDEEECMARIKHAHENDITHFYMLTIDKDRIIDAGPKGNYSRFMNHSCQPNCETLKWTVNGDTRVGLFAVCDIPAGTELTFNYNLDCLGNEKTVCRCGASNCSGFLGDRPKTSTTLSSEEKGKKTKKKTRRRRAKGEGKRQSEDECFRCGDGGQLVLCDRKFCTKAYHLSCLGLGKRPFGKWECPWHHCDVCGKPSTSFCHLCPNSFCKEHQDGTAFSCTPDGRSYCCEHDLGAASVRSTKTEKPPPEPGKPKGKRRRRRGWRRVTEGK
# [2] = target: Receptor tyrosine-protein kinase erbB-4 (Homo sapiens, UniProt Q15303); assay type: functional;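 further: ERBB4 member of a kinome-wide kinase profiling panel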
# [3] = target: ALK tyrosine kinase receptor (Homo sapiens, UniProt Q9UM73); assay type: functional;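 further: ALK tested as one member of a kinase panel screen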
# [4] = target: Serine/threonine-protein kinase pim-2 (Homo sapiens, UniProt Q9P1W9); assay type: functional;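 further: value comes from a broad kinase panel profiling study in which PIM2 was one of the panel members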
# [5] = target: Calcium/calmodulin-dependent protein kinase type II subunit gamma (Homo sapiens, UniProt Q13555); assay type: functional
# [6] = target: Serine/threonine-protein kinase pim-1 (Homo sapiens, UniProt P11309); assay type: functional
# [7] = target: Casein kinase I isoform alpha (Homo sapiens, UniProt P48729); assay type: functional
# [8] = target: Cyclin-dependent kinase 7 (Homo sapiens, UniProt P50613); assay type: functional;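 further: value comes from a kinome-wide kinase profiling panel in which CDK7 is one member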
# [9] = target: Lymphokine-activated killer T-cell-originated protein kinase (Homo sapiens, UniProt Q96KB5); assay type: functional;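 further: value comes from a kinase panel screen in which TOPK was one of the panel members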
# [10] = target: Protein kinase C theta type (Homo sapiens, UniProt Q04759); experiment: Navigating the Kinome. Panel member name: PRKCQ; assay type: functional
# [11] = target: Inhibitor of nuclear factor kappa-B kinase subunit epsilon (Homo sapiens, UniProt Q14164); experiment: Navigating the Kinome. Panel member name: IKBKE; assay type: functional
# [12] = target: Serine/threonine-protein kinase Nek2 (Homo sapiens, UniProt P51955); assay type: functional
# [13] = target: Receptor-type tyrosine-protein kinase FLT3 (Homo sapiens, UniProt P36888); assay type: functional;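 further: FLT3 was tested as one member of a kinome-wide kinase panel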
# [14] = target: Serine/threonine-protein kinase D2 (Homo sapiens, UniProt Q9BZL6); assay type: functional;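 further: measured against PRKD2 as one member of a kinome-wide kinase profiling panel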
# [15] = target: Mitogen-activated protein kinase 8 (Homo sapiens, UniProt P45983); assay type: functional;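 further: value comes from one member of a kinome-wide kinase profiling panel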
# [16] = target: Calcium/calmodulin-dependent protein kinase kinase 2 (Homo sapiens, UniProt Q96RR4); experiment: Navigating the Kinome. Panel member name: CAMKK2; assay type: functional
# [17] = target: Insulin-like growth factor 1 receptor (Homo sapiens, UniProt P08069); experiment: Navigating the Kinome. Panel member name: IGF1R; assay type: functional
# [18] = target: Serine/threonine-protein kinase TAO1 (Homo sapiens, UniProt Q7L7X3); assay type: functional
# Calcium/calmodulin-dependent protein kinase type II subunit gamma, sequence (Q13555 whole entry): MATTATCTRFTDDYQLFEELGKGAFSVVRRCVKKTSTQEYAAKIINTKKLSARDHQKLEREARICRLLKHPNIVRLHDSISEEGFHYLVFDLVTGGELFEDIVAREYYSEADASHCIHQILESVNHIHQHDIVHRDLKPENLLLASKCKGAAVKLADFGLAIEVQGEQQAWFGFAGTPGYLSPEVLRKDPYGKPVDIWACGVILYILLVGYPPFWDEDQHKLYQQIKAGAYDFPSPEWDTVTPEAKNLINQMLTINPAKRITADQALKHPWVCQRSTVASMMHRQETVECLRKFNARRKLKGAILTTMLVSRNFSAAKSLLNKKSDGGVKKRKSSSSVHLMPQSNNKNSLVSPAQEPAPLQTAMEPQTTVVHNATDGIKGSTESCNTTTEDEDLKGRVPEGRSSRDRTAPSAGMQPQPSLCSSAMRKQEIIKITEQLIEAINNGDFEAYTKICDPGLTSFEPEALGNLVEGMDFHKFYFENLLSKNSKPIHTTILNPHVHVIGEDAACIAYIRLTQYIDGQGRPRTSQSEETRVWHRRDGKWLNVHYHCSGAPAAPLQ
# Receptor-type tyrosine-protein kinase FLT3, sequence (P36888 whole entry): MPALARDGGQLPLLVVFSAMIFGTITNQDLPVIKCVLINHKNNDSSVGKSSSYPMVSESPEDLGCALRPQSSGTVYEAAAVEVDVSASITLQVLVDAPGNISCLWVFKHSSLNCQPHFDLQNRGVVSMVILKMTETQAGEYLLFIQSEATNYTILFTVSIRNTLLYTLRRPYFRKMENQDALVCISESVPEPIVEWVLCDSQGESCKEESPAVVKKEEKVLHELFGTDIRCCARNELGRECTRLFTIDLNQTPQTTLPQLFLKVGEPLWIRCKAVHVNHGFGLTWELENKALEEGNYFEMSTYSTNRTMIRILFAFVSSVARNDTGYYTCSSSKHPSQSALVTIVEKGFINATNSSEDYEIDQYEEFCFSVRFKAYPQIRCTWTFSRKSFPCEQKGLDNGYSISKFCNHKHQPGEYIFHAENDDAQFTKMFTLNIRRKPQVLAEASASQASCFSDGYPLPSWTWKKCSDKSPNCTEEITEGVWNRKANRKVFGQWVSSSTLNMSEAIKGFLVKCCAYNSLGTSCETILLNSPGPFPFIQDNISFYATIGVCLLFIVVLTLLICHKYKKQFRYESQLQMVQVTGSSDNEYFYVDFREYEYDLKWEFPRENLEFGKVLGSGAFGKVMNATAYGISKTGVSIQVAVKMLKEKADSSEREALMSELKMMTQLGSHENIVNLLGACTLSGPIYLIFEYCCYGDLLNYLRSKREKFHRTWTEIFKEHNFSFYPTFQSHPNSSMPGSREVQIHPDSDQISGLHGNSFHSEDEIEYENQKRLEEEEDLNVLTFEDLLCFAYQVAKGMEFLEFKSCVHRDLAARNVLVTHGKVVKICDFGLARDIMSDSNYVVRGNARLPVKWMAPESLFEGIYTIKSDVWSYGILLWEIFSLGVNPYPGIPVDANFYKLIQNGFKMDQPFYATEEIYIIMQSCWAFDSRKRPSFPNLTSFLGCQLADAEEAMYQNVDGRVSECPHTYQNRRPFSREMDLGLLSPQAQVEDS
# Serine/threonine-protein kinase pim-1, sequence (P11309 whole entry, canonical isoform): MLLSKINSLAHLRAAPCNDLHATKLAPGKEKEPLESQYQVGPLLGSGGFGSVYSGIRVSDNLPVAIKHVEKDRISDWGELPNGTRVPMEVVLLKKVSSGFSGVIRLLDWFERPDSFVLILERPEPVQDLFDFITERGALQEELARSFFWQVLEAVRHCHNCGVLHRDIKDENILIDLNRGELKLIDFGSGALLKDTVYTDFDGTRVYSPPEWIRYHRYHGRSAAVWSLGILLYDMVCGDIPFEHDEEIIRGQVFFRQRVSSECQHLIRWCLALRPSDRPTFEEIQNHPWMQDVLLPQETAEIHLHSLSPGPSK
# Serine/threonine-protein kinase pim-2, sequence (Q9P1W9 whole entry): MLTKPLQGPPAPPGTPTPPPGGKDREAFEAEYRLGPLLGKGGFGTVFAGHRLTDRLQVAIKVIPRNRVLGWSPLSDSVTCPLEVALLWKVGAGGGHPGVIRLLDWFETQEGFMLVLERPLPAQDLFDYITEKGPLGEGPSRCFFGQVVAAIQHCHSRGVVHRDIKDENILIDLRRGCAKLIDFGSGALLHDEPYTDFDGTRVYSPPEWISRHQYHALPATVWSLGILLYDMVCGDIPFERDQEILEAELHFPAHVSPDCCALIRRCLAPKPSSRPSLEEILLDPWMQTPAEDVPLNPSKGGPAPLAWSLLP
# Casein kinase I isoform alpha, sequence (P48729 whole entry, canonical isoform): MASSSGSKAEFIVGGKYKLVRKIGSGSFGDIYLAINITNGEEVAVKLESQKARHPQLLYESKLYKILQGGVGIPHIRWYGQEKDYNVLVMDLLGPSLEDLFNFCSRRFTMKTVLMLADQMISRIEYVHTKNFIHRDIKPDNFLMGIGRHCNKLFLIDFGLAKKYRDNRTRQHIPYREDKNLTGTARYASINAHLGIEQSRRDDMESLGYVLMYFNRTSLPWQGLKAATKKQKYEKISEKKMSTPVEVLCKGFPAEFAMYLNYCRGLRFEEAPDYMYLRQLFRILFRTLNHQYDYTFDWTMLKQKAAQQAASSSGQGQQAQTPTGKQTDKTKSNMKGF
# Serine/threonine-protein kinase D2, sequence (Q9BZL6 whole entry): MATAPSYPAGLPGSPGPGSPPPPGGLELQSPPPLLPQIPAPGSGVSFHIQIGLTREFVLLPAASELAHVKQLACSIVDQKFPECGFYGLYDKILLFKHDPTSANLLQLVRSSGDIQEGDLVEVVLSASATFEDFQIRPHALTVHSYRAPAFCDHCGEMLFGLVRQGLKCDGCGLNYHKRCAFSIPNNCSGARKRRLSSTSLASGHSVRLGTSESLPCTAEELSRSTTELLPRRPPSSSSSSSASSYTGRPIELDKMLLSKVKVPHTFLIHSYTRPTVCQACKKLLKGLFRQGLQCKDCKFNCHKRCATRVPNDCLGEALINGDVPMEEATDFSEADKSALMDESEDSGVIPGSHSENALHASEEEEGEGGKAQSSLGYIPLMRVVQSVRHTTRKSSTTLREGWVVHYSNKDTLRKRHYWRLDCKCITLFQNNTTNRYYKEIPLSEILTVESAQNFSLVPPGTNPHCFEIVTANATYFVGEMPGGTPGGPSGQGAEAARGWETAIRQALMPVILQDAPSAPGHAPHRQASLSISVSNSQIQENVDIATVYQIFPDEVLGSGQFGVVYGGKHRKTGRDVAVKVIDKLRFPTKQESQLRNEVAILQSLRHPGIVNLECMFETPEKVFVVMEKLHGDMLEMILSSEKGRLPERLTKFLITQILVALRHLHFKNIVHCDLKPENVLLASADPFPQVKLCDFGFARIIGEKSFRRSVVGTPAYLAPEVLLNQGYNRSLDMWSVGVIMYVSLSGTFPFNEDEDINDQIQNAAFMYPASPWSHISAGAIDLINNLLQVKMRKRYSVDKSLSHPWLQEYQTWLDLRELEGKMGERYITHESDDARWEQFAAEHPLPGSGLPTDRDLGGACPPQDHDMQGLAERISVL
# Insulin-like growth factor 1 receptor, sequence (P08069 31-736 limits assumed): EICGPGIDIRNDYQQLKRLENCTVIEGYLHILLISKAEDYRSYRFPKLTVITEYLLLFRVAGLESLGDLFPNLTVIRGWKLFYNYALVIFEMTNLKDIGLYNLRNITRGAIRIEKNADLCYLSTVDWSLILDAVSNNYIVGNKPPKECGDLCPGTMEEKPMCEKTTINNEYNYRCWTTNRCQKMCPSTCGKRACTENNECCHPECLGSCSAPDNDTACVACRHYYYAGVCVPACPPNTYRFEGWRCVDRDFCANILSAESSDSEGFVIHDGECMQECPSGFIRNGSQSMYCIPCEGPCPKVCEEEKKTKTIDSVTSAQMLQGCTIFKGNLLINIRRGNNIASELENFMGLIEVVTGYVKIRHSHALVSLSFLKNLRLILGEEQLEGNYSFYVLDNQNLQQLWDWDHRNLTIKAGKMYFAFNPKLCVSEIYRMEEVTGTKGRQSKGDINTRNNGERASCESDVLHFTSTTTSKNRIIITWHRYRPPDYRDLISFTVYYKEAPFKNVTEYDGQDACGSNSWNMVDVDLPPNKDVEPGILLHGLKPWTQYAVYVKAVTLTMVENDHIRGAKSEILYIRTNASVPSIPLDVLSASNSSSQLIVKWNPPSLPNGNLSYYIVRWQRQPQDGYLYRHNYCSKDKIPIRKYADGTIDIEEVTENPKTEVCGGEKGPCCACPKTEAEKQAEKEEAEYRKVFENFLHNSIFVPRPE
# Insulin-like growth factor 1 receptor, sequence (P08069 741-1367 limits assumed): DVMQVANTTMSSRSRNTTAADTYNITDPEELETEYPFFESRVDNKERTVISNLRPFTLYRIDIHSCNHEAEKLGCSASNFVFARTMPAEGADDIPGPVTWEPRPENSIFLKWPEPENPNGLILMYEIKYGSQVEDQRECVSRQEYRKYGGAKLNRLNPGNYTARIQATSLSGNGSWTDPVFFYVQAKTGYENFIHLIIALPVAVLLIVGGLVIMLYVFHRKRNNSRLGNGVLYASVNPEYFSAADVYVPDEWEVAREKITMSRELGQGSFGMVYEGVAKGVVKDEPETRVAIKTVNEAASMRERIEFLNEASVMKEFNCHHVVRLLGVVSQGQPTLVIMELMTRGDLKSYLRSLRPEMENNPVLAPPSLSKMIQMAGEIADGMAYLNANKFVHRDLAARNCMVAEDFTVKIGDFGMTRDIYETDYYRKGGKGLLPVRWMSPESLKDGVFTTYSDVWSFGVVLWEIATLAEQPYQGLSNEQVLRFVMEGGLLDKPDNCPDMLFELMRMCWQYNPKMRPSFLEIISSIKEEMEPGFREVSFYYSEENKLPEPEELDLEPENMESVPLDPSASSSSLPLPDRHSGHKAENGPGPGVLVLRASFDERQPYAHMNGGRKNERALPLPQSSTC
Ki [2],Ki [3],Ki [4],Ki [5],Ki [6],Ki [7],Ki [8],Ki [10],Ki [11],Ki [12],Ki [13],Ki [14],Ki [15],Ki [16],Ki [17],Ki [18],Compound,AC50 [1],Ki [9]
,,,,,,,,,,,,,,,,CCOC(=O)c1c(NS(=O)(=O)c2ccccc2)n(CCCOC)c2nc3ccccc3nc12,12100 nM (active),
> 3980 nM (inactive),> 2510 nM (inactive),251 nM (active),794 nM (active),1000 nM (active),> 2510 nM (inactive),> 6310 nM (inactive),100 nM (active),> 3160 nM (inactive),3980 nM (active),1000 nM (active),316 nM (active),2510 nM (active),> 2510 nM (inactive),> 2000 nM (inactive),2510 nM (active),OC1CCC(Nc2cc(Cl)nc(-c3c[nH]c4ncccc34)n2)CC1 (centres undefined),,3980 nM (active)
,,,,,,,,,,,,,,,,O=C(COC(=O)c1ccc([N+](=O)[O-])s1)NCCc1ccccc1,> 20000 nM (inactive),
